Measured values reported in patent US20130344139A1, “METHOD OF REDUCING CONTACT LENS INTOLERANCE WITH NON-DRYING ANTIHISTAMINES” (priority 2005, published 2013).

Experiments:
[1] = test system: muscarinic receptors (M1-M5); experiment: Muscarinic receptor signaling, statements for M1-M5 together; details: for inhibition of muscarinic receptor signaling (in words): stimulation with 500 nM acetylcholine; for IC50 at muscarinic receptors (in words): lack of anticholinergic properties
Excerpt: (§1) C6 rat glioma and CHO-K1 (Chinese hamster ovary) cells were obtained from the American Type Culture Collection (ATCC, Manassas, Va.). […] Recombinant cell lines stably expressing independently each of the five human muscarinic receptors (M1, M2, M3, M4 or M5) were established by transfecting C6 rat glioma cells with the plasmid pcDNA3.1(+) containing the DNA sequence encoding the muscarinic receptor subtypes. Moreover, two of the muscarinic receptor subtypes (M2 and M4) that signal through the Gαi protein were expressed in C6 cells that also expressed a functional chimeric Gq/i protein allowing these receptors to signal via calcium mobilization.

[2] = molecular target: human muscarinic receptor M3 (Homo sapiens, UniProt P20309); experiment: Muscarinic receptor potency, C6 cells expressing recombinant M3
Chain of human muscarinic receptor M3 (P20309 whole entry): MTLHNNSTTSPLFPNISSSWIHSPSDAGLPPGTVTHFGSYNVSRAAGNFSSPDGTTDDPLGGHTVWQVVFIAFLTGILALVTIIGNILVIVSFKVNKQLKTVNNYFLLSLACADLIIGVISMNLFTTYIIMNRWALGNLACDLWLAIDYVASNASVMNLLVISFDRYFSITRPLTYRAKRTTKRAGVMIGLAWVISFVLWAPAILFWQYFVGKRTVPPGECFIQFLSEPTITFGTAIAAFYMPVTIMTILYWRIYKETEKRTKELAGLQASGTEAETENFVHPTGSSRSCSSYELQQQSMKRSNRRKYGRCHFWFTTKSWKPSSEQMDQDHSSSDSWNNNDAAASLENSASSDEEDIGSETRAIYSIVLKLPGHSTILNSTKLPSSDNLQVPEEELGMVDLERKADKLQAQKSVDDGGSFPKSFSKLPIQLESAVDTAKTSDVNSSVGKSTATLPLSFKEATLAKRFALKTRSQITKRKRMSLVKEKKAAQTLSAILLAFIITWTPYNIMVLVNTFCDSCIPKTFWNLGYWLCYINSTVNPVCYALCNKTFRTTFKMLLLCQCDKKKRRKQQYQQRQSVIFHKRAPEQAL
Excerpt: as §1

[3] = molecular target: T1, human muscarinic receptor M5 (Homo sapiens, UniProt P08912); experiment: Muscarinic receptor potency, C6 cells expressing recombinant M5
T1 sequence (P08912 1-532): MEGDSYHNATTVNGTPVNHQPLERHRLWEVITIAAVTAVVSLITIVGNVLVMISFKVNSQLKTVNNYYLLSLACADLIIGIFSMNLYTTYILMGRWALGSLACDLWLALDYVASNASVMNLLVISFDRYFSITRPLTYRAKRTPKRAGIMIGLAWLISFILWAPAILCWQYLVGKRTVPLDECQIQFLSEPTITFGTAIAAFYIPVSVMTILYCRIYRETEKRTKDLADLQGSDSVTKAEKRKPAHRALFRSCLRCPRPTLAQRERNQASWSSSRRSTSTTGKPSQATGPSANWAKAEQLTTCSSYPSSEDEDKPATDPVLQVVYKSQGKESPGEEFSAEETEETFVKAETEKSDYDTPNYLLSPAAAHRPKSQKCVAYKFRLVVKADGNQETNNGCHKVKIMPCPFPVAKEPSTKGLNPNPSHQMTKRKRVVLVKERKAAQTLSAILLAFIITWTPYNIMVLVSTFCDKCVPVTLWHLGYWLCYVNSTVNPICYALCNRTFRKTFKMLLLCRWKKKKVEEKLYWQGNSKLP
Excerpt: as §1

[4] = molecular target: T2, human muscarinic receptor M4 (Homo sapiens, UniProt P08173); experiment: Muscarinic receptor potency, C6 cells expressing recombinant M4 (chimeric Gq/i)
T2 sequence (P08173 1-479): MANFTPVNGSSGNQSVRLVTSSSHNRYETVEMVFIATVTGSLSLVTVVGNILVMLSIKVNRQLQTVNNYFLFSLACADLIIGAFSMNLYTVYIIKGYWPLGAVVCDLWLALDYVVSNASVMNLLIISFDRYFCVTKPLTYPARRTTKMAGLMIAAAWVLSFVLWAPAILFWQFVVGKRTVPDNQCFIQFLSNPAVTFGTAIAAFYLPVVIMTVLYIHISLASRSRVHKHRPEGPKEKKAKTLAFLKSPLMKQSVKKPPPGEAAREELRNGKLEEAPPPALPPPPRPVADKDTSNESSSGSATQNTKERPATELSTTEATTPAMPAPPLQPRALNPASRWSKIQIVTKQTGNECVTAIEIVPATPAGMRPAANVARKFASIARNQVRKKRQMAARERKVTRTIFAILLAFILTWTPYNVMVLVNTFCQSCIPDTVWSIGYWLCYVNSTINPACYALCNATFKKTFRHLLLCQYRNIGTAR
Excerpt: as §1

[5] = molecular target: endogenous M3 receptor (1321N1) (Homo sapiens, UniProt P20309)
Chain of endogenous M3 receptor (1321N1) (P20309 whole entry): as the sequence (P20309 whole entry) above

healthy individuals = details: systemic antihistamines; increased corneal and conjunctival staining, decreased TFBUT, increased ocular discomfort; cited from earlier work
C57BL6 mice = experiment: Effect of topical epinastine and olopatadine on tear volume in mice (phenol red cotton thread); format: in vivo, mouse; details: for tear volume compared with untreated group: olopatadine: 15 min and 45 min (P<0.05); for overall effect on tear volume / tear secretion (conclusion): topical, mice
Procedure: After two and four days of treatment, tear volume measurements were made with a phenol red impregnated cotton thread (Zone-Quick, Menicon, San Mateo, Calif.) 15, 45, 90, 120 and 240 min after the last instillation of the drug. A baseline tear measurement was performed before initiation of drug therapy. The untreated group had tear volume measurements done at the same time points. The length of tear wetting on the cotton thread was measured with a Nikon SMZ1500 microscope using MetaVue© software. A standard curve of cotton thread uptake was made using a glass micropipette with a known volume of a basic solution. Mouse tear volumes were calculated using regression analysis calculated by Microsoft® Excel. ANOVA with Tukey's Multiple Comparison Test was used for statistical analysis using GraphPad Prism® software.

[6] = molecular target: T3, human muscarinic receptor M1 (Homo sapiens, UniProt P11229); experiment: cell-based
T3 sequence (P11229 1-460): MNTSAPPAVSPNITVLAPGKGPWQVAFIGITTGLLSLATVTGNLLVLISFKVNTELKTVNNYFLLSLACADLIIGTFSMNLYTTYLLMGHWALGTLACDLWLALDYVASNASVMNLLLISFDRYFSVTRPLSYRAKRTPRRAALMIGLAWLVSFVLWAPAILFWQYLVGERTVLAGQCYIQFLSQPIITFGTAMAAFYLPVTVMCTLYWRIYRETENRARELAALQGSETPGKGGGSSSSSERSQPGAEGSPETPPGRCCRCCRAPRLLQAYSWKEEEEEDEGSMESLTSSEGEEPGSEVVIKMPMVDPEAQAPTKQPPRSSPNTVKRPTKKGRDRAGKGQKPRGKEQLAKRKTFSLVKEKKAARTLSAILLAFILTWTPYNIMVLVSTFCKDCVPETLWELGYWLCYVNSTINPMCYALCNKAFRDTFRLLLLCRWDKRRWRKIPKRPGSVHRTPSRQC
Excerpt: as §1

[7] = molecular target: T4, human muscarinic receptor M2 (Homo sapiens, UniProt P08172); experiment: Muscarinic receptor potency, C6 cells expressing recombinant M2 (chimeric Gq/i)
T4 sequence (P08172 1-466): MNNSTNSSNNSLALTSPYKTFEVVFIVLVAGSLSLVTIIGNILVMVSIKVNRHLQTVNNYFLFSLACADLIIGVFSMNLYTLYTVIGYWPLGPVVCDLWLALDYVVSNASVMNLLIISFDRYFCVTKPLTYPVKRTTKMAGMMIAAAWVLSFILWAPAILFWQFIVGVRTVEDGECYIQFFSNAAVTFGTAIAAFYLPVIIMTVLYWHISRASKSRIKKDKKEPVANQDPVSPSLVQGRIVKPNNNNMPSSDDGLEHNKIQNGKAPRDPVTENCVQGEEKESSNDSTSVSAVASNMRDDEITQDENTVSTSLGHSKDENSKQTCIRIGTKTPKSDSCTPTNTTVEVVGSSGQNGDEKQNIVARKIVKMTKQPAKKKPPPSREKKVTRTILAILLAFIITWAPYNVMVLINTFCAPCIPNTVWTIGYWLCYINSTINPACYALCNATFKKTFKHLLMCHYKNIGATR
Excerpt: as §1

[8] = test system: contact lens-wearing subjects; experiment: Effect of topical epinastine on contact lens-wearing, contact lens intolerant subjects; format: in vivo
Excerpt: This was a multi-center, open-label, randomized study that compared (a) epinastine 0.05% ophthalmic solution (ELESTAT®, Inspire Pharmaceuticals, Inc., Durham, N.C.) plus rewetting drops (Walgreens Rewetting Drops, Walgreens, Deerfield Ill.) with (b) rewetting drops alone. The subjects wore contact lenses, but were contact lens intolerant. The study started during the spring allergy season because seasonal allergic conjunctivitis may exacerbate the symptoms of contact lens intolerance.
146 subjects had 3 clinic visits over a 2-week period. The first was the screening visit to determine eligibility. Following that, subjects completed a daily diary card to assess compliance and capture baseline values during a 5-7 day run-in period with rewetting drops. At the next visit, each subject was dispensed a new pair of contact lenses and randomly assigned to receive either (a) epinastine 0.05% ophthalmic solution BID (twice a day) plus rewetting drops (75 subjects), or (b) rewetting drops only as needed, but at least twice a day (71 subjects), for a 5-7 day treatment period. During the treatment period, subjects recorded the length of time that contact lens wear was comfortable, the total time of wear, ocular itch, overall ocular comfort, and use of rewetting drops. Subjects receiving epinastine were instructed to remove contact lenses prior to instillation, allow at least 10 minutes before reinsertion, and allow 15 minutes before administering rewetting drops. Each instillation was to occur 8-12 hours after the previous one, with the evening application coming after removal of lenses for the day. The final visit came after the 5-7 day treatment period and allowed collection of the data and unused study medication.
Ocular comfort was scored on a scale of 0-4, with 0=very comfortable, 1=somewhat comfortable, 2=mildly uncomfortable, 3=moderately uncomfortable, and 4=very uncomfortable.
Ocular itch was scored on a scale of 0-4, with 0=none, 1=mild, 2=moderate, 3=severe, and 4=extremely severe.
Baseline values presented are the average of all entries recorded during the run-in phase of the study. P values are based on an ANCOVA model that included the treatment, the site, and the baseline value. Values for Day 1 are not included in the analysis for contact lens wear time, ocular itching, ocular comfort, and rewetting drop usage because they were a mixture of run-in and treatment period values.

allergic conjunctivitis = details: in vivo; cited from earlier work
[9] = molecular target: human histamine H1 receptor (Homo sapiens, UniProt P35367); experiment: H1 receptor potency: inhibition of histamine stimulation in CHO-K1 H1 cells
Chain of human histamine H1 receptor (P35367 whole entry): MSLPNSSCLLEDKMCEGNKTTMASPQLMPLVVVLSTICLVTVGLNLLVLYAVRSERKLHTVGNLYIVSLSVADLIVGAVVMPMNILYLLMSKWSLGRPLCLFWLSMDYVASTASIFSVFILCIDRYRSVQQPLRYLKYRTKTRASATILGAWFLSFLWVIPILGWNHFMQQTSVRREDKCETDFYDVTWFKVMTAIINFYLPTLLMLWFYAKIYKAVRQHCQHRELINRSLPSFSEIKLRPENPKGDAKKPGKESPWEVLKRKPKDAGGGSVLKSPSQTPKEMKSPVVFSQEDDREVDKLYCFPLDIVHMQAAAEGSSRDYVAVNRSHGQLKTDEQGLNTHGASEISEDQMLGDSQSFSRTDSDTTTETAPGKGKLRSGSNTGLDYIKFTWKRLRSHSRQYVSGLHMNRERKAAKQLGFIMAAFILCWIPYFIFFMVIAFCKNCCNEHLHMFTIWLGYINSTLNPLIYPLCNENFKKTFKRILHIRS
Excerpt: as §1
Dose response curves were generated.

human subjects = experiment: Ocular drying effect of topical epinastine and systemic loratadine, crossover study (fluorophotometry, staining, TFBUT); details: after 4 days of treatment
[10] = average during treatment period

For `CN1CCCC(n2nc(Cc3ccc(Cl)cc3)c3ccccc3c2=O)CC1` (stereo not shown) [azelastine], the “inhibition of muscarinic receptor signaling (in words)” value [1] was “inhibited muscarinic receptor signaling in a dose-dependent manner”, the IC50 [2] was 16.8 µM and the IC50 [3] was 3.26 µM. The IC50 [4] was 8.11 µM and the IC50 [5] was 10.2 µM.
For `O=C(O)COCCN1CCN(C(c2ccccc2)c2ccc(Cl)cc2)CC1` (stereo not shown) [cetirizine], the “signs and symptoms associated with ocular dryness” value (healthy individuals) is listed as “induced signs and symptoms associated with ocular dryness” and the “IC50 at muscarinic receptors (in words)” value [1] is listed as “could not be calculated”.
In the case of `CN(C)CC/C=C1/c2ccccc2COc2ccc(CC(=O)O)cc21` [olopatadine], the “tear volume compared with untreated group” value (C57BL6 mice; after 2 days of treatment) is reported as “untreated group also had a statistically higher tear volume than the olopatadine group”, the “overall effect on tear volume / tear secretion (conclusion)” value (C57BL6 mice) is reported as “significant decrease in tear volume” and the IC50 [6] is reported as 1740 nM. For the same compound, the “inhibition of muscarinic receptor signaling (in words)” value [1] was “inhibited muscarinic receptor signaling in a dose-dependent manner”, the IC50 [2] was 7.98 µM and the IC50 [3] was 10.7 µM. The IC50 [7] was 7.67 µM, the IC50 [4] was 13.1 µM and the IC50 [5] was 41.9 µM.
For `NC1=NCC2c3ccccc3Cc3ccccc3N12` (stereo not shown) [epinastine, 3-amino-9,13b-dihydro-1H-dibenz[c,f]-imidazo[5,1-a]azepine], the “mean tear volume compared with olopatadine-treated group” value (C57BL6 mice; after 2 days of treatment, 1 μL twice a day on ocular surface, 15, 45, 90 and 240 minutes, significant at 45 min (P<0.001)) was “higher mean tear volumes”, the “tear volume compared with untreated group” value (C57BL6 mice; after 2 days of treatment) was “increased production of tears over the untreated group, but the difference was not statistically significant” and the “tear volume compared with olopatadine” value (C57BL6 mice; after 4 days of treatment, significant at 45 min (p<0.05)) was “volumes were higher at all time points”. For the same compound, the “overall effect on tear volume / tear secretion (conclusion)” value (C57BL6 mice) was “not found to inhibit tear secretion, but rather increased tear production”, the “Frequency of rewetting drop use, mean change from baseline” value [8, 10] was −0.55 and the “Total contact lens wear, mean change from baseline” value [8, 10] was 0.35 h. For the same compound, the “Comfortable contact lens wear, mean change from baseline” value ([8]; average during treatment period (5-7 days)) was 1.33 h, the “average use of rewetting drops over the entire treatment period” value ([8]; in vivo) was 2.79 uses per day and the “mean overall eye comfort over the entire treatment period” value ([8]; score 0-4 (0=very comfortable, 4=very uncomfortable)) was 1.43. For the same compound, the “Overall eye comfort, mean change from baseline” value ([8]; score 0-4 (0=very comfortable, 4=very uncomfortable), average during treatment period) was −0.48, the “average ocular itch score over the entire treatment period” value ([8]; score on a scale of 0-4) was 1.11 and the “Ocular itch, mean change from baseline” value ([8]; score on a scale of 0-4, average during treatment period) was −0.54. The “average total wearing time over the treatment period” value ([8]; treatment period 5-7 days) was 13.22 h, the “comfortable wear time averaged over the treatment period” value ([8]; treatment period 5-7 days) was 9.21 h and the “redness and itching associated with allergic conjunctivitis” value (allergic conjunctivitis) was “reduces redness and itching”. The “IC50 at muscarinic receptors (in words)” value [1] was “could not be calculated” and the IC50 [9] was 19 ± 3 nM.
In the case of `CN1CCC(=C2c3ccccc3CC(=O)c3sccc32)CC1` [ketotifen], the IC50 [3] is reported as 0.138 µM, the IC50 [7] is reported as 0.209 µM and the IC50 [4] is reported as 0.561 µM.
In the case of `CCOC(=O)N1CCC(=C2c3ccc(Cl)cc3CCc3cccnc32)CC1` [loratadine], the “signs and symptoms associated with ocular dryness” value (healthy individuals) is listed as “induced signs and symptoms associated with ocular dryness”, the “corneal and conjunctival staining, increase” value (human subjects) is listed as 22% and the “mean TFBUT (tear film break-up time), decrease” value (human subjects) is listed as 22%. The “tear flow, decrease” value (human subjects) was 35% and the “tear volume, decrease” value (human subjects) was 34%.
With `CCOCCn1c(C2CCN(CCc3ccc(C(C)(C)C(=O)O)cc3)CC2)nc2ccccc21` [bilastine] the “IC50 at muscarinic receptors (in words)” value [1] was “could not be calculated” and the IC50 [9] was 165 ± 44 nM.
